Assays:
[1] = refractive index (Na D-line) (dimensionless); xn = mol fraction of the nth substance listed; conditions: 101 kPa, Liquid
[2] = xn = mol fraction of the nth substance listed; conditions: 101 kPa, Liquid; for speed of sound: Linear variable-path acoustic interferometer

CC1CCCCC1 [methylcyclohexane] + CC(C)O
Conditions | mass density, 298.15 K [kg/m3] | mass density, 303.15 K [kg/m3] | mass density, 308.15 K [kg/m3] | refractive index, 298.15 K | refractive index, 303.15 K | refractive index, 308.15 K | speed of sound, 298.15 K [m/s] | viscosity, 298.15 K [mPa·s] | viscosity, 303.15 K [mPa·s] | viscosity, 308.15 K [mPa·s]
[1], x1 = 0.1001 | – | – | – | 1.3822 | 1.3798 | 1.3775 | – | – | – | –
[1], x1 = 0.2033 | – | – | – | 1.3879 | 1.3854 | 1.3829 | – | – | – | –
[1], x1 = 0.3065 | – | – | – | 1.3936 | 1.3909 | 1.3883 | – | – | – | –
[1], x1 = 0.4049 | – | – | – | 1.3983 | 1.3956 | 1.3928 | – | – | – | –
[1], x1 = 0.5034 | – | – | – | 1.4029 | 1.4001 | 1.3973 | – | – | – | –
[1], x1 = 0.6022 | – | – | – | 1.4068 | 1.404 | 1.4013 | – | – | – | –
[1], x1 = 0.7009 | – | – | – | 1.4106 | 1.408 | 1.4053 | – | – | – | –
[1], x1 = 0.8021 | – | – | – | 1.4145 | 1.4118 | 1.4092 | – | – | – | –
[1], x1 = 0.9032 | – | – | – | 1.4184 | 1.4158 | 1.413 | – | – | – | –
[1], x1 = 1 | – | – | – | 1.4217 | 1.4192 | 1.4163 | – | – | – | –
[2], x1 = 0.1001 | 777.28 | 772.86 | 768.43 | – | – | – | 1151 | 1.634 | 1.441 | 1.248
[2], x1 = 0.2033 | 774.39 | 769.88 | 765.38 | – | – | – | 1159 | 1.35 | 1.197 | 1.044
[2], x1 = 0.3065 | 771.5 | 766.95 | 762.32 | – | – | – | 1166 | 1.117 | 1.004 | 0.8905
[2], x1 = 0.4049 | 769.55 | 764.95 | 760.33 | – | – | – | 1173 | 0.9645 | 0.8716 | 0.7785
[2], x1 = 0.5034 | 767.6 | 763.01 | 758.34 | – | – | – | 1181 | 0.8434 | 0.7708 | 0.698
[2], x1 = 0.6022 | 766.22 | 761.62 | 757 | – | – | – | 1188 | 0.7815 | 0.7193 | 0.6573
[2], x1 = 0.7009 | 765.17 | 760.61 | 756 | – | – | – | 1195 | 0.7197 | 0.6681 | 0.6167
[2], x1 = 0.8021 | 764.75 | 760.25 | 755.69 | – | – | – | 1203 | 0.703 | 0.6546 | 0.6061
[2], x1 = 0.9032 | 764.43 | 759.88 | 755.37 | – | – | – | 1210 | 0.6864 | 0.641 | 0.5955
[2], x1 = 1 | 764.99 | 760.66 | 756.3 | – | – | – | 1217 | 0.6757 | 0.631 | 0.5902

CC1CCCCC1 [methylcyclohexane] + CCCCO
Conditions | mass density, 298.15 K [kg/m3] | mass density, 303.15 K [kg/m3] | mass density, 308.15 K [kg/m3] | refractive index, 298.15 K | refractive index, 303.15 K | refractive index, 308.15 K | speed of sound, 298.15 K [m/s] | viscosity, 298.15 K [mPa·s] | viscosity, 303.15 K [mPa·s] | viscosity, 308.15 K [mPa·s]
[1], x1 = 0.1021 | – | – | – | 1.4036 | 1.4015 | 1.3994 | – | – | – | –
[1], x1 = 0.2041 | – | – | – | 1.4034 | 1.4008 | 1.3982 | – | – | – | –
[1], x1 = 0.3027 | – | – | – | 1.406 | 1.4035 | 1.4009 | – | – | – | –
[1], x1 = 0.4013 | – | – | – | 1.4087 | 1.4062 | 1.4037 | – | – | – | –
[1], x1 = 0.5039 | – | – | – | 1.4105 | 1.4081 | 1.4057 | – | – | – | –
[1], x1 = 0.6066 | – | – | – | 1.4121 | 1.4099 | 1.4076 | – | – | – | –
[1], x1 = 0.7014 | – | – | – | 1.4147 | 1.4122 | 1.4097 | – | – | – | –
[1], x1 = 0.7963 | – | – | – | 1.4169 | 1.4143 | 1.4117 | – | – | – | –
[1], x1 = 0.8981 | – | – | – | 1.4193 | 1.4167 | 1.414 | – | – | – | –
[1], x1 = 1 | – | – | – | 1.4217 | 1.4192 | 1.4163 | – | – | – | –
[2], x1 = 0.1021 | 801.93 | 797.96 | 793.95 | – | – | – | 1263 | 2.396 | 2.122 | 1.848
[2], x1 = 0.2041 | 795.62 | 791.47 | 787.32 | – | – | – | 1258 | 2.205 | 1.957 | 1.709
[2], x1 = 0.3027 | 790.23 | 786.03 | 781.87 | – | – | – | 1253 | 2.021 | 1.797 | 1.573
[2], x1 = 0.4013 | 785.45 | 781.24 | 776.99 | – | – | – | 1248 | 1.834 | 1.636 | 1.438
[2], x1 = 0.5039 | 780.86 | 776.57 | 772.29 | – | – | – | 1243 | 1.639 | 1.468 | 1.296
[2], x1 = 0.6066 | 776.73 | 772.4 | 768.04 | – | – | – | 1238 | 1.443 | 1.288 | 1.153
[2], x1 = 0.7014 | 773.21 | 768.83 | 764.46 | – | – | – | 1233 | 1.262 | 1.141 | 1.021
[2], x1 = 0.7963 | 770.14 | 765.74 | 761.34 | – | – | – | 1227 | 1.08 | 0.9828 | 0.8858
[2], x1 = 0.8981 | 767.52 | 763.15 | 758.77 | – | – | – | 1222 | 0.8808 | 0.8104 | 0.74
[2], x1 = 1 | 764.99 | 760.66 | 756.3 | – | – | – | 1217 | 0.6757 | 0.631 | 0.5902
